Experiments:
barnyardgrass [1] = test: Test B pre-/postemergence herbicide test; type: in vivo, Echinochloa crus-galli; details: for Barnyardgrass plant response rating: postemergence
Outline: (§1)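 Pre: seeds sown, then sprayed. Post: 1–4-leaf plants (2–18 cm) sprayed at the same time. Paddy: flooded, treated at 2-leaf stage. Formulation: non-phytotoxic solvent with surfactant. Greenhouse 13–15 days; visual 0–100 score relative to controls.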

Surinam grass = test: Test B pre-/postemergence herbicide test; type: in vivo, Urochloa decumbens; details: for Surinam Grass plant response rating: scale 0 (no effect) to 100 (complete control)
Outline: (§2)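 Test chemicals in a non-phytotoxic solvent mixture with surfactant were applied preemergence to seeded species and postemergence to plants 2-18 cm tall (1- to 4-leaf stage); rice and barnyardgrass were also tested in a flooded paddy at the 2-leaf stage. Visual rating versus controls after 13-15 days in greenhouse, scale 0 (no effect) to 100 (complete control).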

cocklebur = test: Test B pre-/postemergence herbicide test; type: in vivo, Xanthium strumarium; details: for Cocklebur plant response rating: postemergence
Outline: as §1

corn = test: Test B pre-/postemergence herbicide test; type: in vivo, Zea mays; details: for Corn plant response rating: postemergence
Outline: as §2

large crabgrass = test: Test B pre-/postemergence herbicide test; type: in vivo, Digitaria sanguinalis; details: for Crabgrass, Large plant response rating: postemergence
Outline: as §2

giant foxtail = test: Test B pre-/postemergence herbicide test; type: in vivo, Setaria faberi; details: for Foxtail, Giant plant response rating: postemergence
Outline: as §2

lambsquarters = test: Test B pre-/postemergence herbicide test; type: in vivo, Chenopodium album; details: for Lambsquarters plant response rating: scale 0 (no effect) to 100 (complete control)
Outline: as §2

morningglory = test: Test B pre-/postemergence herbicide test; type: in vivo, Ipomoea coccinea; details: for Morningglory plant response rating: scale 0 (no effect) to 100 (complete control)
Outline: as §1

pigweed = test: Test B pre-/postemergence herbicide test; type: in vivo, Amaranthus retroflexus; details: for Pigweed plant response rating: scale 0 (no effect) to 100 (complete control)
Outline: as §2

velvetleaf = test: Test B pre-/postemergence herbicide test; type: in vivo, Abutilon theophrasti; details: for Velvetleaf plant response rating: scale 0 (no effect) to 100 (complete control)
Outline: as §2

blackgrass = test: Test B postemergence herbicide test; type: in vivo, Alopecurus myosuroides; details: postemergence
Outline: (§3)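 Read-out: visual comparison with controls, scored 0 to 100, where 100 means complete control and 0 no effect. Formulated chemicals were applied postemergence to plants 2–18 cm tall (1- to 4-leaf), or to flooded-paddy plants at the 2-leaf stage, then held 13 to 15 days under glass.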

wheat = test: Test B postemergence herbicide test; type: in vivo, Triticum aestivum; design: key to Wheat plant response rating: 0 = no effect, 100 = complete control
Outline: (§4)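 Postemergence plants were sprayed with formulated test chemicals at 2 to 18 cm height (1- to 4-leaf stage); paddy species were grown to the 2-leaf stage. After 13 to 15 days in a greenhouse, injury was rated visually against untreated controls on a 0–100 scale (0 = no effect, 100 = complete control).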

wild oat = test: Test B postemergence herbicide test; type: in vivo, Avena fatua; details: scale 0 (no effect) to 100 (complete control)
Outline: as §4

rice [2] = test: Test B flooded paddy test; type: in vivo, Oryza sativa; details: 1000 g ai/ha, scale 0 to 100 (0 no effect, 100 complete control)
Outline: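 Paddy species grown to the 2-leaf stage under flooding; blackgrass sprayed postemergence at 2–18 cm (1- to 4-leaf stage). Plants kept in a greenhouse for 13 to 15 days, then visually rated against controls on 0 (no effect) to 100 (complete control).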

[3] = tested on: small flower umbrella sedge; test: Test B flooded paddy test; type: in vivo, Cyperus difformis; details: 1000 g ai/ha, scale 0 to 100 (0 no effect, 100 complete control)
Outline: as §3

ducksalad [4] = test: Test B flooded paddy test; type: in vivo, Heteranthera limosa; details: 1000 g ai/ha, scale 0 to 100 (0 no effect, 100 complete control)
Outline: as §3

barnyardgrass [5] = test: Test B flooded paddy test; type: in vivo, Echinochloa crus-galli; details: 1000 g ai/ha, scale 0 to 100 (0 no effect, 100 complete control)
Outline: as §3

rice [6] = test: Test C flooded paddy test; type: in vivo, Oryza sativa
Outline: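 Injury scored visually against controls on a 0 (no effect) to 100 (complete control) scale, 12 to 14 days after treatment in greenhouse. Flooded paddy plants treated at 2-leaf stage; postemergence plants at 1- to 4-leaf stage, 2 to 18 cm tall.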

[7] = tested on: smallflower umbrella sedge; test: Test C flooded paddy test; type: in vivo, Cyperus difformis
ducksalad [8] = test: Test C flooded paddy test; type: in vivo, Heteranthera limosa
barnyardgrass [9] = test: Test C flooded paddy test; type: in vivo, Echinochloa crus-galli
Outline: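 Postemergence sprays applied to plants 2 to 18 cm tall (1- to 4-leaf stage); paddy species grown to 2-leaf stage under flooding. After 12 to 14 days in greenhouse, visual rating versus untreated controls on 0–100 scale (0 no effect, 100 complete control).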

[10] = 125 g ai/ha, 0 is no effect, 100 is complete control, preemergence
[11] = 125 g ai/ha, visual rating, scale 0 (no effect) to 100 (complete control)
[12] = 500 g ai/ha, scale 0 to 100, 0 is no effect, 100 is complete control
[13] = 125 g ai/ha, visual rating, postemergence
[14] = 125 g ai/ha, scale 0 to 100 (0 no effect, 100 complete control)
[15] = 250 g ai/ha, scale of 0 to 100, 0 is no effect, 100 is complete control
[16] = 500 g ai/ha, visual rating after 12 to 14 days, scale 0 to 100 (0 no effect, 100 complete control)

CCc1nn(C(C)(C)C)nc1C(=O)Nc1cc(C(=O)N(C)CC)ccc1F [Compound 388]
Plant response rating (0 to 100 scale), Barnyardgrass (barnyardgrass [1]; [10]): 50
Barnyardgrass plant response rating (barnyardgrass [1]; [11]): 0
Barnyardgrass plant response rating (barnyardgrass [1]; [12]): 10
Plant response rating (0 to 100 scale), Surinam Grass (Surinam grass; [10]): 20
Surinam Grass plant response rating (Surinam grass; [13]): 10
Surinam Grass plant response rating (Surinam grass; Postemergence, 500 g ai/ha): 20
Plant response rating (0 to 100 scale), Cocklebur (cocklebur; [10]): 0
Cocklebur plant response rating (cocklebur; [11]): 10
Cocklebur plant response rating (cocklebur; [12]): 20
Plant response rating (0 to 100 scale), Corn (corn; [10]): 30
Corn plant response rating (corn; [11]): 10
Corn plant response rating (corn; [12]): 20
Plant response rating (0 to 100 scale), Crabgrass, Large (large crabgrass; [10]): 80
Crabgrass, Large plant response rating (large crabgrass; [11]): 20
Crabgrass, Large plant response rating (large crabgrass; [12]): 20
Plant response rating (0 to 100 scale), Foxtail, Giant (giant foxtail; [10]): 20
Foxtail, Giant plant response rating (giant foxtail; [11]): 10
Foxtail, Giant plant response rating (giant foxtail; [12]): 30
Plant response rating (0 to 100 scale), Lambsquarters (lambsquarters; [10]): 90
Lambsquarters plant response rating (lambsquarters; [13]): 60
Lambsquarters plant response rating (lambsquarters; Postemergence, 500 g ai/ha): 70
Plant response rating (0 to 100 scale), Morningglory (morningglory; [10]): 0
Morningglory plant response rating (morningglory; [13]): 10
Morningglory plant response rating (morningglory; Postemergence, 500 g ai/ha): 50
Plant response rating (0 to 100 scale), Pigweed (pigweed; [10]): 80
Pigweed plant response rating (pigweed; [13]): 40
Pigweed plant response rating (pigweed; Postemergence, 500 g ai/ha): 50
Plant response rating (0 to 100 scale), Velvetleaf (velvetleaf; [10]): 10
Velvetleaf plant response rating (velvetleaf; [13]): 20
Velvetleaf plant response rating (velvetleaf; Postemergence, 500 g ai/ha): 40
Blackgrass plant response rating (blackgrass; [11]): 0
Blackgrass plant response rating (blackgrass; [12]): 20
Wheat plant response rating (wheat; 125 g ai/ha, visual rating, scale 0 (no effect) to 100 (complete control), postemergence): 0
Wheat plant response rating (wheat; 500 g ai/ha, scale 0 to 100, 0 no effect, 100 complete control, preemergence): 90
Wheat plant response rating (wheat; Postemergence, 500 g ai/ha, scale 0 (no effect) to 100 (complete control)): 10
Oat, Wild plant response rating (wild oat; [13]): 0
Oat, Wild plant response rating (wild oat; Postemergence, 500 g ai/ha): 10
Rice plant response rating (rice [2]): 70
Sedge, Umbrella plant response rating [3]: 70
Ducksalad plant response rating (ducksalad [4]): 80
Barnyardgrass plant response rating (barnyardgrass [5]): 70
Rice plant response rating (rice [6]; 62 g ai/ha, scale 0 to 100): 15
Rice plant response rating (rice [6]; [14]): 55
Rice plant response rating (rice [6]; [15]): 65
Plant response rating, Rice (rice [6]; [16]): 70
Sedge, Umbrella plant response rating ([7]; 62 g ai/ha, scale 0 to 100): 65
Sedge, Umbrella plant response rating [7, 14]: 70
Sedge, Umbrella plant response rating [7, 15]: 75
Plant response rating, Sedge, Umbrella [7, 16]: 80
Ducksalad plant response rating (ducksalad [8]; 62 g ai/ha, scale 0 to 100): 0
Ducksalad plant response rating (ducksalad [8]; [14]): 0
Ducksalad plant response rating (ducksalad [8]; [15]): 45
Plant response rating, Ducksalad (ducksalad [8]; [16]): 80
Barnyardgrass plant response rating (barnyardgrass [9]; 62 g ai/ha, scale 0 to 100 (0 no effect, 100 complete control)): 0
Barnyardgrass plant response rating (barnyardgrass [9]; [14]): 10
Barnyardgrass plant response rating (barnyardgrass [9]; [15]): 35
Plant response rating, Barnyardgrass (barnyardgrass [9]; [16]): 65
